The values that follow come from patent US10550105B2 (Ribon Therapeutics Inc., priority 2018, dated 2020).

A value given as a limit tells only on which side of the number the result lay.

For assay [1], the system named is CT26 tumors. Briefly: Inhibition of tumor growth, murine syngeneic model CT26 (subcutaneous dosing). It counts as in vivo. The following applies: CT26 in BALB/c mice, vs vehicle (FIG. 6). How it is done:
For the CT26 study BALB/c mice were inoculated subcutaneously at the right flank with CT26 cells for tumor development. Four days after tumor inoculation, 36 mice with tumor size ranging from 40-55 mm^3 (average tumor size 47 mm^3) were selected and assigned into 3 groups using stratified randomization with 12 mice in each group based upon their tumor volumes. The treatments were started from the next day post randomization (defined randomization day as day 0) and were treated with vehicle (0.5% methylcellulose+0.2% Tween 80), Compound 98 (500 mg/kg S.C. QD*21 days), Compound 93A (100 mg/kg S.C. BID*21 days) respectively. The tumor sizes were measured three times per week during the treatment. The entire study was terminated on day 21. Mean tumor volume and SEM for both studies are plotted. Statistical significance, calculated using two-tailed unpaired t-tests in which each treatment group was compared to vehicle control, is indicated by an asterisk. Statistics were performed on groups with less than 20% animal loss (D21 for CT26, D17 for 4T1).

Assay [2] concerns NCI-H1373 lung cancer cells. Briefly: Inhibition of cancer cell growth in NCI-H1373 lung cancer cells (FIG. 2). It counts as cell-based, human.
Assay [3] concerns the target T1, PARP7 (Homo sapiens (Human), UniProt Q7Z3E1). Briefly: Enzymatic assay for inhibition of PARP7: TR-FRET displacement of biotinylated Probe A from the TIPARP active site. It counts as binding. The following applies: Table A-1. The procedure, abridged:
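Read-out: 665/615 nm emission ratio (ex 320 nm, 90 μs delay) indexing bound TIPARP–Probe A. Final incubation 30 min, 25° C; compounds in dose response. Curve fit of % inhibition vs concentration; Hill slope floating or fixed at 1 (3-parameter).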
In general terms: Time-resolved FRET reads energy transfer from a long-lived donor to a nearby acceptor.

For assay [4], the system named is 4T1-luc2-1A4 tumors. Briefly: Inhibition of tumor growth, murine syngeneic model 4T1 (orthotopic, mammary fat pad). The following applies: 4T1 orthotopic in female BALB/c mice, vs vehicle (FIG. 6). It counts as in vivo. The text has this: Example G: Inhibition of Tumor Growth by Treatment with PARP7 Inhibitors For the 4T1 study female BALB/c mice were inoculated orthotopically in the mammary fat pad with 4T1-1uc2-1A4 cells for tumor development. Eight days after tumor inoculation, 45 mice with tumor size ranging from 63-88 mm^3 (average tumor size 67 mm^3) were selected and assigned into 3 groups using stratified randomization with 15 mice in each group based upon their tumor volumes. The treatments were started from the next day post randomization (defined randomization day as D0) and were treated with vehicle (0.5% methylcellulose +0.2% Tween 80), Compound 98 (500 mg/kg S.C. QD*21 days), Compound 93A (100 mg/kg S.C. BID*21 days) respectively. The tumor sizes were measured three times per week during the treatment. The entire study was terminated on D20. Mean tumor volume and SEM for both studies are plotted. Statistical significance, calculated using two-tailed unpaired t-tests in which each treatment group was compared to vehicle control, is indicated by an asterisk. Statistics were performed on groups with less than 20% animal loss (D21 for CT26, D17 for 4T1).

For assay [5], the system named is interferon-beta (IFN-β). Briefly: Induction of interferon-beta levels in RAW264.7 macrophages in the presence of STING agonist DMXAA (FIG. 3). The format is cell-based. The conditions noted are these: RAW264.7 mouse macrophages.
Assay [6] relates to interferon-beta (IFN-β). Briefly: Induction of interferon-beta levels in CT26 cells in the presence of STING agonist DMXAA (FIG. 3). It counts as cell-based. The following applies: CT26 mouse colon cancer cells.
The target in assay [7] is T1, PARP7. Briefly: Inhibition of PARP7 (Table A-1). It counts as biochemical. The conditions noted are these: comparison of separated isomers, see Table A-1.

One may read the IC50 as the concentration that gives 50% inhibition. High values mean lower potency, low ones higher potency.

T1 sequence (Q7Z3E1 whole entry): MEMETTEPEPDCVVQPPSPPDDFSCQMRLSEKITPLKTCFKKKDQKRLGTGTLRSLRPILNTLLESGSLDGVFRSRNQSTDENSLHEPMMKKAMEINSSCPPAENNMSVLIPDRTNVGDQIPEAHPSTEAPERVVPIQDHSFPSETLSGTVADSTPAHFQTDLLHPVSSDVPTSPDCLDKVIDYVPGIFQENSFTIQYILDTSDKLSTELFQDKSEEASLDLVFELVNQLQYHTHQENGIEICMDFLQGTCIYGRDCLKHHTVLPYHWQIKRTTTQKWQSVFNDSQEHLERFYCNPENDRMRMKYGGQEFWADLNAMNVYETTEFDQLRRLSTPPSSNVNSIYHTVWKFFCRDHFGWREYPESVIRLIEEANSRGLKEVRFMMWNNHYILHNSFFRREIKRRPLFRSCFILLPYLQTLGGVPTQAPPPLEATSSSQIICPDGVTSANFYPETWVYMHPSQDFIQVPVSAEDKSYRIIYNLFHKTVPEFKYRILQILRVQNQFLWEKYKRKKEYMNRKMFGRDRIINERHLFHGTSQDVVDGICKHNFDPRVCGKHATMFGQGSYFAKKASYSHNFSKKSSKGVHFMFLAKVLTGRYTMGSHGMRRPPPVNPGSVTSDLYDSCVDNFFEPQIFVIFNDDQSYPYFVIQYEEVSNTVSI

With `N#Cc1ccc(N2CCN(C(=O)CCOC[C@@H]3c4ccccc4CN3c3cn[nH]c(=O)c3C(F)(F)F)CC2)nc1` (single isomer, unassigned) [Example 93 Isomer A], the tumor growth entry in assay [1] (100 mg/kg S.C. BID*21 days) and in assay [4] (100 mg/kg S.C. BID*21 days) was “significantly reduce tumor growth” in each case. The “growth of NCI-H1373 lung cancer cells” value in assay [2] is given as “dose-dependent decrease in growth”. In assay [3], this compound came in with a concentration for half-maximal inhibition (IC50) of less than 100 nM.
`N#Cc1ccc(N2CCN(C(=O)c3cccc(OCCOc4cccc5c4CN(c4cn[nH]c(=O)c4C(F)(F)F)C5)c3)CC2)nc1` [Example 39, 6-[4-([3-[2-([2-[6-Oxo-5-(trifluoromethyl)-1,6-dihydropyridazin-4-yl]-2,3-dihydro-1H-isoindol-4-yl]oxy)ethoxy]phenyl]carbonyl)piperazin-1-yl]pyridine-3-carbonitrile]: the “growth of NCI-H1373 lung cancer cells” value in assay [2] is “dose-dependent decrease in growth”. For the same compound, in assay [3], the concentration for half-maximal inhibition (IC50) is less than 100 nM.
Turning to `N#Cc1ccc(N2CCN(C(=O)CCOC[C@@H]3CCCN3c3cn[nH]c(=O)c3C(F)(F)F)CC2)nc1` [Example 98, 6-[4-(3-[[(2S)-1-[6-Oxo-5-(trifluoromethyl)-1,6-dihydropyridazin-4-yl]pyrrolidin-2-yl]methoxy]propanoyl)piperazin-1-yl]pyridine-3-carbonitrile], the “interferon-beta (IFN-β) levels” value in assay [5] and in assay [6] was “induction” throughout. Besides, the tumor growth result in assay [1] (500 mg/kg S.C. QD*21 days) and in assay [4] (500 mg/kg S.C. QD*21 days) was “significantly reduce tumor growth” throughout. Besides, the “growth of NCI-H1373 lung cancer cells” value in assay [2] was “dose-dependent decrease in growth”. This compound also returned a 50% inhibitory concentration (IC50) in assay [3] of less than 100 nM.
As for `N#Cc1ccc(N2CCN(C(=O)C[C@H]3CC[C@@H]([C@@H]4CCCN4c4cn[nH]c(=O)c4C(F)(F)F)O3)CC2)nc1` [Example 141B, 6-(4-[2-[(2R,5S)-5-[(2S)-1-[6-oxo-5-(trifluoromethyl)-1,6-dihydropyridazin-4-yl]pyrrolidin-2-yl]oxolan-2-yl]acetyl]piperazin-1-yl)pyridine-3-carbonitrile], in assay [7], the “relative potency of the enantiomers / diastereomers” value is “more potent enantiomer”. The same compound yielded an IC50 in assay [3] of less than 100 nM.
For `C[C@@H](COCCS(=O)(=O)N1CCN(c2ncc(C(F)(F)F)cn2)CC1)Oc1cn[nH]c(=O)c1C(F)(F)F` [Example 728, (S)-4-(Trifluoromethyl)-5-((1-(2-((4-(5-(trifluoromethyl)pyrimidin-2-yl)piperazin-1-yl)sulfonyl)ethoxy)propan-2-yl)oxy)pyridazin-3(2H)-one], in assay [3], the IC50 was less than 100 nM.
Take `C[C@@H](COCCC(=O)N1CCN(c2ncc(C(F)(F)F)s2)CC1)Oc1cn[nH]c(=O)c1Cl` [Example 729, (S)-4-Chloro-5-((1-(3-oxo-3-(4-(5-(trifluoromethyl)thiazol-2-yl)piperazin-1-yl)propoxy)propan-2-yl)oxy)pyridazin-3(2H)-one]: in assay [3], the IC50 lay in the range of 100 to 1000 nM.
`C[C@@H](COCCC(=O)N1CCN(c2ncc(C(F)(F)F)s2)CC1)Oc1cn[nH]c(=O)c1Br` [Example 730, (S)-4-Bromo-5-((1-(3-oxo-3-(4-(5-(trifluoromethyl)thiazol-2-yl)piperazin-1-yl)propoxy)propan-2-yl)oxy)pyridazin-3(2H)-one] yielded an IC50 in assay [3] of 100 to 1000 nM.
Same read-out and setting: next, `C[C@@H](COCCS(=O)(=O)N1CCN(c2ncc(C(F)(F)F)s2)CC1)Nc1cn[nH]c(=O)c1Cl` [Example 731, (S)-4-Chloro-5-((1-(2-((4-(5-(trifluoromethyl)thiazol-2-yl)piperazin-1-yl)sulfonyl)ethoxy)propan-2-yl)amino)pyridazin-3(2H)-one]: less than 100 nM; `C[C@@H](COCCS(=O)(=O)N1CCN(c2ncc(C(F)(F)F)s2)CC1)Nc1cn[nH]c(=O)c1Br` [Example 732, (S)-4-Bromo-5-((1-(2-((4-(5-(trifluoromethyl)thiazol-2-yl)piperazin-1-yl)sulfonyl)ethoxy)propan-2-yl)amino)pyridazin-3(2H)-one]: less than 100 nM; `Cc1cnc(N2CCN(C(=O)CCOC[C@H](C)Nc3cn[nH]c(=O)c3C(F)(F)F)CC2)s1` [Example 733, (S)-5-((1-(3-(4-(5-Methylthiazol-2-yl)piperazin-1-yl)-3-oxopropoxy)propan-2-yl)amino)-4-(trifluoromethyl)pyridazin-3(2H)-one]: less than 100 nM.
